Calls of active or inactive are those of the source. The calls are words filed in the database; no cut-off is given here.
target: T1, Myelin-associated glycoprotein (Homo sapiens) (UniProt P20916); experiment: Ratio of IC50 for drug to sodium (2S,4S,5R,6R)-5-acetami do-2-((2R,3R,4S,5S,6R)-2-((2R, 3R,4S,6S)-3-acetamido-6-(hydro xymethyl)-2-(2-(trimethylsilyl )ethoxy)-tetrahydro-2H-pyran-4 -yloxy)-3,5-dihydroxy-6-(hydro xymethyl)-tetrahydro-2H-pyran- 4-yloxy)-4-hydroxy-6-((1S,2R)- 1,2,3-trihydroxypropyl)-tetrah ydro-2H-pyran-2-carboxylate for human recombinant MAG N-terminal domain expressed in CHO cells; type: cell-based
T1 sequence (whole entry): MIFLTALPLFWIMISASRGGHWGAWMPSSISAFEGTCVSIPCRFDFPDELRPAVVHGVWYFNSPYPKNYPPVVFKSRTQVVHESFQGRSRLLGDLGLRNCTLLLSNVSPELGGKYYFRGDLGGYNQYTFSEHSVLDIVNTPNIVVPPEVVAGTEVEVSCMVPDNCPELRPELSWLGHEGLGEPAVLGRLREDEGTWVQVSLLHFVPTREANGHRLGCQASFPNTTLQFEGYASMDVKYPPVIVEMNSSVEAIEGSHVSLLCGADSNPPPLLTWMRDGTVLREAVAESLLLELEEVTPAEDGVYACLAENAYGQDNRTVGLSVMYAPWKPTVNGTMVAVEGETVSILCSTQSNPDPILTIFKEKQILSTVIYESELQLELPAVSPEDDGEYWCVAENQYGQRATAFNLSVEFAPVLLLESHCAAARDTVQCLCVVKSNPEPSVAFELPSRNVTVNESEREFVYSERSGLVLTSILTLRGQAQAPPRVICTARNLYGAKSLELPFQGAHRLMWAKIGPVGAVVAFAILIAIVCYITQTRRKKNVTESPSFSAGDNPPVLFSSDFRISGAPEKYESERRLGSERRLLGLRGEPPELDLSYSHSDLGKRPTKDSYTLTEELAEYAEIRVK

Activity | Ratio IC50 | SMILES
inactive | – | CC(=O)N[C@H]1[C@H]([C@@H](O)[C@H](O)CO)O[C@](Oc2ccc(Oc3ccccc3)cc2)(C(=O)O)C[C@@H]1O
– | 0.38 | CC(=O)N[C@H]1[C@H]([C@@H](O)[C@H](O)CO)O[C@@](OCc2ccc(-c3ccccc3)cc2)(C(=O)O)C[C@@H]1O
inactive | – | CC(=O)N[C@H]1[C@H]([C@@H](O)[C@H](O)CO)O[C@](OCc2cccc(Oc3ccccc3)c2)(C(=O)O)C[C@@H]1O
– | 0.62 | CC(=O)N[C@H]1[C@H]([C@@H](O)[C@H](O)CO)O[C@@](OCc2ccccc2)(C(=O)O)C[C@@H]1O
– | 0.89 | CC(=O)N[C@H]1[C@H]([C@@H](O)[C@H](O)CO)O[C@@](Oc2ccc(Oc3ccccc3)cc2)(C(=O)O)C[C@@H]1O
– | 1 | CC(=O)N[C@H]1[C@H]([C@@H](O)[C@H](O)CO)O[C@@](Oc2cccc(-c3ccc(CC(=O)O)cc3)c2)(C(=O)O)C[C@@H]1O

The next lines start with the molecule.

SMILES | Activity | Ratio IC50
CC(=O)N[C@H]1[C@H](OCC[Si](C)(C)C)O[C@H](CO[C@]2(C(=O)O)C[C@H](O)[C@@H](NC(C)=O)[C@H]([C@H](O)[C@H](O)CO)O2)C[C@@H]1O[C@@H]1O[C@H](CO)[C@H](O)[C@H](O[C@]2(C(=O)O)C[C@H](O)[C@@H](NC(C)=O)[C@H]([C@@H](O)[C@H](O)CO)O2)[C@H]1O | – | 4
CC(=O)N[C@H]1[C@H]([C@@H](O)[C@H](O)CO)O[C@@](Oc2cccc(-c3cn(CC(=O)O)nn3)c2)(C(=O)O)C[C@@H]1O | – | 1.1
CC(=O)N[C@H]1[C@H]([C@@H](O)[C@H](O)CO)O[C@@](Oc2cccc(-c3cn(-c4ccc(C(=O)O)cc4)nn3)c2)(C(=O)O)C[C@@H]1O | – | 0.9
CO[C@]1(C(=O)O)C[C@H](O)[C@@H](NC(C)=O)[C@H]([C@@H](O)[C@H](O)CO)O1 | – | 0.07

From ChEMBL document CHEMBL1140504, “Mimetics of the tri- and tetrasaccharide epitope of GQ1balpha as myelin-associated glycoprotein (MAG) ligands” (Bioorg Med Chem, 2007)
